What all share (assay type): cell-based, human
The subject of one data set is GM5387 (fibroblasts). The experiment in a line: growth rate (proliferation) after taurolidine treatment, GM5387. Particulars: GM5387, 50 and 100 μg/ml taurolidine. The procedure: (§1) FIGS. 11A and 11B depict cell viability and growth rates for GM5387 cell line following taurolidine treatment, in terms of % trypan blue negative cells and % cell number, respectively. Cells were treated with various concentrations of taurolidine for 4 hours in AIM-V+0.01% BCS. After aliquots were collected for LDH assay, the remainder of the culture was rinsed in HBSS and resuspended in RPMI+10% BCS without taurolidine. Counts of trypan blue-negative cells (FIG. 11A), and total cell number (FIG. 11B), were recorded daily thereafter (with the measurement at Day 1 being made immediately after the 4 hour taurolidine treatment). Conditions were: no treatment (open circles); 25 μg/ml taurolidine (closed circles); 50 μg/ml taurolidine (open squares); 100 μg/ml taurolidine (closed squares); and vehicle alone (closed triangles). Doubling times were determined under each condition, and expressed as a percentage of the rate of doubling of untreated cells. These values are located to the right of the growth curves in (FIG. 11B). […]
(§2) HL-60 cells treated with 50 μl taurolidine. In these samples, LDH present in the culture medium was 8.3±2.3% of that released by completely lysed cells, compared with 2.3±0.8% measured in control cultures. […] After 4 hour treatment, cells were rinsed and returned to growth medium and monitored for viability and growth over the following 3 days. […]

For data set [1], the system named is ECV304 (endothelial cells). The experiment in a line: growth rate (proliferation) after taurolidine treatment, ECV304. The conditions noted are these: ECV304, 50 and 100 μg/ml taurolidine. The procedure: as §1, with “10A” for “11A”, “10B” for “11B”, “ECV304” for “GM5387”, “10A),” for “11A),”, “10B),” for “11B),”, “10B).” for “11B).”
as §2

The test system of the next data set is HL-60. The experiment in a line: LDH release (cell membrane integrity), HL-60. The procedure:
FIGS. 7A and 7B depict cell viability and growth rates for HL-60 cell line following taurolidine treatment, in terms of % trypan blue negative cells and % cell number, respectively. Cells were treated with various concentrations of taurolidine for 4 hours in AIM-V+0.01% BCS. After aliquots were collected for LDH assay, the remainder of the culture was rinsed in HBSS and resuspended in RPMI+10% BCS without taurolidine. Counts of trypan blue-negative cells (FIG. 7A), and total cell number (FIG. 7B), were recorded daily thereafter (with the measurement at Day 1 being made immediately after the 4 hour taurolidine treatment). Conditions were: no treatment (open circles); 25 μg/ml taurolidine (closed circles); 50 μg/ml taurolidine (open squares); 100 μg/ml taurolidine (closed squares); and vehicle alone (closed triangles). Doubling times were determined under each condition, and expressed as a percentage of the rate of doubling of untreated cells. These values are located to the right of the growth curves in (FIG. 7B). Cells were subcultured when they reached a concentration of 6×10^5 cells/ml. Data are mean±SEM of three experiments.
In these experiments, integrity of cell membranes following taurolidine treatment was assessed by exclusion of trypan blue and by measuring the release of LDH in MM6, K-562, HL-60, and REH cells. Since BCS contains significant amounts of LDH, these experiments were conducted on cells cultured in AIM-V+0.01% BCS. Four hour treatment of cells was conducted in AIM-V containing 0.01% BCS in order to allow subsequent LDH assay without interference from BCS (which occurs in when normal culture medium, containing 10% BCS, is used). Thus, MM6 cells (5×10^5 cells/ml) were treated with taurolidine for four hours in AIM-V+0.01% BCS, after which an aliquot of the cell suspension was removed for measurement of LDH release. A parallel aliquot of cells was lysed by three cycles of freeze/thaw and the quantity of LDH released was taken to be 100%. […]
^a LDH was measured immediately after four hour taurolidine treatment.
(LDH leaks from cells whose membrane has failed.)

The text below walks through data of US6303596A, “Use of taurolidine for treatment of leukemias” (priority 2000, dated 2001).

Regarding `O=S1(=O)CCN(CN2CCS(=O)(=O)NC2)CN1` [taurolidine, 4,4'-methylenebis(perhydro-1,2,4-thiadiazin 1,1-dioxide)], the proliferation after treatment entry (in the data set with GM5387 (fibroblasts); in data set [1]) was “inhibited proliferation” in each case. Further, the “LDH in culture medium, % of that released by completely lysed cells” value in the data set with HL-60 (HL-60, control 2.3±0.8%, 240 min) was found to be 8.3±2.3%. In the data set with HL-60 (Homo sapiens, HL-60, 50 μg/ml, 4 h, read-out: LDH (% of total)), the cytotoxicity at 50 µg/mL came to 5%. Besides, in the data set with HL-60 (Homo sapiens, HL-60, 100 μg/ml, 4 h, read-out: LDH (% of total)), the cytotoxicity at 100 µg/mL was 6%.
